According to patent publication US8003660B2, “Modulators of muscarinic receptors” (Vertex Pharmaceuticals Incorporated, priority 2006, dated 2011):
Read-outs that look alike come from different tables or passages of the source.

Key:
Format in all cases: cell-based
M3 muscarinic receptor = target: T1, M3 muscarinic receptor (Homo sapiens, UniProt P20309); experiment: Functional mobilization of intracellular calcium (FLIPR) in CHO cells expressing M3; conditions: for EC50: CHO cells expressing M3, FLIPR calcium; for Emax: CHO; for M3 Activity: CHO cells expressing M3, FLIPR calcium assay
T1 construct: expressed in transfected cells; host or cells: CHO (M3-CHO)
T1 sequence (P20309 whole entry): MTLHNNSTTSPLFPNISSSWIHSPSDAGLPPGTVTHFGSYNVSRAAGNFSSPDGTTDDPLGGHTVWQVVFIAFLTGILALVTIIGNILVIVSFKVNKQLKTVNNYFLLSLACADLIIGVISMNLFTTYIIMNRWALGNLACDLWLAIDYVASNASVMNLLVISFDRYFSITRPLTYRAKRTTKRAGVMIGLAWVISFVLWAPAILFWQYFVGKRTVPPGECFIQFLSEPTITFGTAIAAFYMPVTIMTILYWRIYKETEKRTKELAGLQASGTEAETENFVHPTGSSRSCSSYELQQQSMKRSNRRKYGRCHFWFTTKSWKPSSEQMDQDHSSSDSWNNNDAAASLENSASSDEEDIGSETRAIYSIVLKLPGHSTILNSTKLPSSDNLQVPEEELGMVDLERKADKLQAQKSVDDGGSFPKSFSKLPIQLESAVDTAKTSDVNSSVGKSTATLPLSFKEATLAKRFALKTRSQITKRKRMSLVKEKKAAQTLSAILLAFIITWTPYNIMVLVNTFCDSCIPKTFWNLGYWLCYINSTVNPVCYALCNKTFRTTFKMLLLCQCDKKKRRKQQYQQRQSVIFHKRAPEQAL
Procedure: (§1) Functional Mobilization of Intracellular Calcium to Determine Muscarinic Receptor Activity:
(§2) CHO cells expressing muscarinic receptors (M1 to M5) are grown as monolayers in tissue culture flasks at 37° C. in a humidified atmosphere containing 5% CO2 and passaged every 3-5 days. The growth media is Dulbecco's modified eagles medium (DMEM, Gibco Cat# 12430-054), containing 25 mM Hepes and supplemented with Fetal Bovine Serum (Hyclone, cat# SH30071.03), 0.1 mM of MEM non-essential amino acids (GIBCO, Cat# 11140-050), 1 mM MEM Sodium Pyruvate (GIBCO Cat# 11360-070) and 100 units/ml of Penicillin G and 100 μg/ml of Streptomycin (GIBCO Cat# 15140-122). The recombinant muscarinic receptor cell lines are grown under antibiotic pressure with media containing 25 μg/ml zeocin and 500 μg/ml G418 (M1-CHO), 4 μg/ml puromycin, 50 μg/ml zeocin and 2.5 μg/ml blasticidin (M2 and M4-CHO) or 50 μg/ml zeocin and 4 μg/ml puromycin (M3 and M5-CHO).
(§3) Cells are harvested at 80-90% confluence using Versene (GIBCO Cat# 15040-066), collected by centrifugation and seeded 18-24 hrs prior to running the calcium assay at a density of 5,000-10,000 cells/well in […], clear-bottomed 384-well plates (BD Biocoat, poly-D-lysine, Cat#356663). The day of the experiment, the cells are washed with a plate washer (Bioteck Instruments, ELX 405) using bath 1 buffer (140 mM NaCl, 4,5 mM KCl, 2 mM CaCl2, 1 mM MgCl2, 10 mM Hepes-Na, 10 mM Glucose, pH 7.4, with NaOH) containing 1 mM Probenecid. Next, the calcium dye Fluo-3 (25 μl/well of Fluo-3 AM at 4 μM, Molecular Probes F-1241, in Bath 1 buffer containing 1 mM Probenecid) is added to the 25 μl of Bath 1 remaining in each well after the plate wash and the dye is loaded at 37° C. in the tissue culture incubator for 60-90 min. The fluorescent dye is removed using the plate washer with Bath 1 containing 1 mM Probenecid, leaving 25 μl/well of this solution after the wash. Alternatively, cells can be loaded with the calcium indicator from Molecular Devices (Calcium 3 Assay Reagents, Cat #R7181) adding 5 μl of a 5× solution dye in Bath 1 containing 1 mM Probenecid (10 ml per dye flask cat#R7182 to generate a solution […]) to 20 μl of the same buffer. After loading for 60 min, the experiment can be run without having to remove the dye.
(§4) Compounds are prepared at a 2× fold concentration in a 96-well plate (round bottom, Costar Corning cat#3656), by reconstituting the pre-spotted compounds in bath 1 containing 1 mM probenecid. The final concentration DMSO is 0.5%, and the amount of DMSO is normalized across the assay plate. To determine an agonist action of the compounds on muscarinic receptors, the reconstituted compounds are added (25 μl compound/well) to the cell assay plate (containing 25 μl/well) using the multi-channel robotic system of the FLIPR 3 Instrument (Molecular Devices, Sunnyvale, Calif.). To determine a functional inhibitory action of the compounds on muscarinic receptors, the reconstituted compounds are added (25 μl compound/well) to the assay plate and pre-incubated for 15 min prior to adding 25 μl of Carbachol at 3× the EC80 for each muscarinic subtype. Alternatively, the compounds can be co-applied simultaneously with the agonist. In both assay modes, the fluorescence is recorded for 60 sec (excitation wavelength is […] and emission wavelength 540 nm) using the FLIPR 3 instrument.
(§5) The potency, efficacy and selectivity of the muscarinic compounds were evaluated by screening the compound activity across the whole family (M1 to M5 cells). Compounds were also screened for activity on other proteins such as other GPCRs and ion channels to determine selectivity on M4 receptors.

M1 muscarinic receptor = target: T2, M1 muscarinic receptor (Homo sapiens, UniProt P11229); experiment: Functional mobilization of intracellular calcium (FLIPR) in CHO cells expressing M1; conditions: for EC50: CHO cells expressing M1, FLIPR calcium; for Emax: CHO; for M1 Activity: CHO cells expressing M1, FLIPR calcium assay
T2 construct: expressed in transfected cells; host or cells: CHO (M1-CHO)
T2 sequence (P11229 1-460): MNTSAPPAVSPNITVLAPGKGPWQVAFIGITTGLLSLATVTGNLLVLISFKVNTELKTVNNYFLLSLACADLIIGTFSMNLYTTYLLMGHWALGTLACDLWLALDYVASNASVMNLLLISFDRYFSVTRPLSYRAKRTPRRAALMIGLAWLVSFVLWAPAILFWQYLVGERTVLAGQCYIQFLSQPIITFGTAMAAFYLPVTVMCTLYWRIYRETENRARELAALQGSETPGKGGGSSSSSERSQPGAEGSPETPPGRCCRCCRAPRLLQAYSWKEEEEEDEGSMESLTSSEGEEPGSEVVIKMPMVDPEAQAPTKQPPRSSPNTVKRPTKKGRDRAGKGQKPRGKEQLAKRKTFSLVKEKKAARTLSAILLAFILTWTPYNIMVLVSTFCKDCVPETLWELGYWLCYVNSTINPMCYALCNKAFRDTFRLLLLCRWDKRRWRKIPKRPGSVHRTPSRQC
Procedure: as §1, §2, §3, §4, §5

M4 muscarinic receptor = target: T3, M4 muscarinic receptor (Homo sapiens, UniProt P08173); experiment: Functional mobilization of intracellular calcium (FLIPR) in CHO cells expressing M4; conditions: for EC50: CHO cells expressing M4, FLIPR calcium; for Emax: CHO; for M4 Activity: CHO cells expressing M4, FLIPR calcium assay
T3 construct: expressed in transfected cells; host or cells: CHO (M4-CHO)
T3 sequence (P08173 1-479): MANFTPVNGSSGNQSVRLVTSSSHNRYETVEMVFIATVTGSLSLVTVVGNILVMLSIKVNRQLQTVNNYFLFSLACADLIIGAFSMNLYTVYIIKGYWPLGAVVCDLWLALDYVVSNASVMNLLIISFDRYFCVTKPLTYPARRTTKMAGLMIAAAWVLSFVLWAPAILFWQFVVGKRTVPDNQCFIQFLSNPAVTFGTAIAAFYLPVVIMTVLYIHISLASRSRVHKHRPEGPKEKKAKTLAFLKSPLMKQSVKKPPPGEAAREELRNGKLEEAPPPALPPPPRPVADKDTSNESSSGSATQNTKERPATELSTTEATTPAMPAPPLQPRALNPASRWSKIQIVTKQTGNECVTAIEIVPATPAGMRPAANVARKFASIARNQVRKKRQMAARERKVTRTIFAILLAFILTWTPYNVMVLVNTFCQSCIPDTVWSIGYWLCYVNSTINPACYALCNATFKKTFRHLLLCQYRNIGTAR
Procedure: as §1, §2, §3, §4, §5

M2 muscarinic receptor = target: T4, M2 muscarinic receptor (Homo sapiens, UniProt P08172); experiment: Functional mobilization of intracellular calcium (FLIPR) in CHO cells expressing M2; conditions: for EC50: CHO cells expressing M2, FLIPR calcium; for Emax: CHO; for M2 Activity: CHO cells expressing M2, FLIPR calcium assay
T4 construct: expressed in transfected cells; host or cells: CHO (M2-CHO)
T4 sequence (P08172 1-466): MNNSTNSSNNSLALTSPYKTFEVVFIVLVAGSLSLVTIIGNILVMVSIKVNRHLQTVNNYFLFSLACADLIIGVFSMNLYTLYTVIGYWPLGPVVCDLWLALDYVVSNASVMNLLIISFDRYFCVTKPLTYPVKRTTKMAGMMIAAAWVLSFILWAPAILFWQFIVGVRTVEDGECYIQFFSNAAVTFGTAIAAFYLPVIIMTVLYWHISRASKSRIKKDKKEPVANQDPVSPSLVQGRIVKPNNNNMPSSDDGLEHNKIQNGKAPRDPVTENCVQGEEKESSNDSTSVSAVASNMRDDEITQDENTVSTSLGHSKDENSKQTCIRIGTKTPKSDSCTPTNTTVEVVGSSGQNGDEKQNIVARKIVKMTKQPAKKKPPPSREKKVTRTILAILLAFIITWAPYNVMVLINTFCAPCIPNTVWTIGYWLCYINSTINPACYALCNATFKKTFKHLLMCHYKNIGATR
Procedure: as §1, §2, §3, §4, §5

[1] = 100% = maximum response obtained with the Carbachol control, read-out: M3 Efficacy
[2] = 100% = maximum response obtained with the Carbachol control, read-out: M1 Efficacy
[3] = 100% = maximum response obtained with the Carbachol control, read-out: M4 Efficacy
[4] = 100% = maximum response obtained with the Carbachol control, read-out: M2 Efficacy
[5] = 100% efficacy = maximum response obtained with the Carbachol control

SMILES | EC50 (M3 muscarinic receptor) | Emax (M3 muscarinic receptor; [1]) | EC50 (M1 muscarinic receptor) | Emax (M1 muscarinic receptor; [2]) | EC50 (M4 muscarinic receptor) | Emax (M4 muscarinic receptor; [3]) | EC50 (M2 muscarinic receptor) | Emax (M2 muscarinic receptor; [4]) | M3 Activity (M3 muscarinic receptor) | Emax (M3 muscarinic receptor; [5]) | M1 Activity (M1 muscarinic receptor) | Emax (M1 muscarinic receptor; [5]) | M4 Activity (M4 muscarinic receptor) | Emax (M4 muscarinic receptor; [5]) | M2 Activity (M2 muscarinic receptor) | Emax (M2 muscarinic receptor; [5])
CC(C)(C)CCN1CCC2(CC[C@@H](NC(=O)CC3CCCC3=O)c3ccc(F)cc32)CC1 (some centres unmarked) [compound 17] | > 5 µM | < 25% | < 2000 nM | 25 to 100% | < 2000 nM | 25 to 100% | > 5 µM | < 25% |  |  |  |  |  |  |  | 
CC(=O)N[C@H]1CCC2(CCN(CC(C)(C)C)CC2)c2ccccc21 [compound 66] | > 5 µM | < 25% | < 2000 nM | 25 to 100% | < 2000 nM | 25 to 100% | > 5 µM | 25 to 100% |  |  |  |  |  |  |  | 
CC(C)(C)CCN1CCC2(CC[C@H](NC(=O)CC3CCCC3=O)c3ccc(F)cc32)CC1 (some centres unmarked) [compound 28] | > 5 µM | < 25% | < 2000 nM | 25 to 100% | < 2000 nM | 25 to 100% | 2 to 5 µM | < 25% |  |  |  |  |  |  |  | 
CC/C=C\CCCCCCN1CCC2(CC1)C[C@H](NC(C)=O)c1ccccc12 [compound 248] |  |  |  |  |  |  |  |  | + (activity was measured to be greater than 5.0 μM) | < 25% | ++ (activity was measured to be from 2.0 μM to 5.0 μM) | 25 to 100% | + (activity was measured to be greater than 5.0 μM) | 25 to 100% | + (activity was measured to be greater than 5.0 μM) | < 25%
CC(C)(C)CCN1CCC2(CC[C@H](NC(=O)CN3CCCCCC3=O)c3ccccc32)CC1 [compound 71] | > 5 µM | < 25% | < 2000 nM | 25 to 100% | < 2000 nM | 25 to 100% | < 2 µM | 25 to 100% |  |  |  |  |  |  |  | 
CC(C)(C)CCN1CCC2(CC[C@@H](N3CCCC3=O)c3ccc(F)cc32)CC1 [compound 168] | > 5 µM | < 25% | 2000 to 5000 nM | < 25% | < 2000 nM | 25 to 100% | > 5 µM | < 25% |  |  |  |  |  |  |  | 
CCOCC(=O)N[C@H]1CCC2(CCN(CCC(C)(C)C)CC2)c2cc(F)ccc21 [compound 196] |  |  |  |  |  |  |  |  | + (activity was measured to be greater than 5.0 μM) | < 25% | +++ (activity was measured to be less than 2.0 μM) | 25 to 100% | +++ (activity was measured to be less than 2.0 μM) | 25 to 100% | +++ (activity was measured to be less than 2.0 μM) | 25 to 100%
